Results from article PMC12446003, “Pharmacological characterization of linaprazan glurate (X842), a novel potassium-competitive acid blocker, in vitro and in vivo” (Frontiers in Pharmacology, 2025).
Where “and” joins values, the source holds several entries; their conditions need not be identical. Identical values can stand only once. Like-named read-outs stand apart in the source and are kept apart here.

Key:
[1] = Pharmacokinetic assessment of X842 in dogs (IV, single oral, repeated oral); format: in vivo; details: beagle, dog, plasma; for half-life at 1 day: read-out: t1/2 Day 1 (converted); for half-life at 7 day: read-out: t1/2 Day 7 (converted)
Description: Pharmacokinetic assessments were conducted by Shanghai Medicilon Inc. Using C18 solid-phase extraction (Shimadzu UFLC-20A, ACE 3, C18, 3.0 µm, 150 × 4.6 mm; Shimadzu, Japan) with the following conditions: mobile phase A: 1 M ammonium acetate in water, mobile phase B: 100% acetonitrile; gradient 0–5 min: 100% A, 5–30 min: 85% A, 35–63 min: 75% A, 63–65 min: 55% A, 65–70 min: 0% A, 72–87 min: 100% A; flow rate 0.7 mL/min; column temperature 30 °C ([Weidof and Covey, 1992]). […] Bioavailability was calculated as F (%) = (Doseiv × AUCpo(0–24h)) ÷ (Dosepo × AUCiv (0–24h)) × 100%, where “po” represents oral administration and “iv” represents intravenous administration.
Male and female Beagle dogs weighing around 9 kg were arbitrarily selected for testing. Food and water were provided ad libitum, except during overnight fasting (15–16 h) prior to oral drug administration ([Adebowale et al., 2002]). X842 were dissolved in the PEG400/ethanol/Solutol/water mixture (40:10:5:45% v/v) and methane sulfonic acid was used to adjust to pH 3, yielding solutions with concentrations of 0.3 mg/mL, 1.2 mg/mL, and 4.8 mg/mL for oral administration. There were four rounds of drug administration. One week was required between the rounds of testing according to the conditions for of animal welfare maintenance. For IV injection, a drug solution with a concentration of 0.3 mg/mL was prepared and filtered through a 0.22-μm filter. Blood samples were collected via the jugular vein using the same procedures as were used for the rat experiments. Following centrifugation, the plasma was transferred to clean tubes and stored at −80 °C until further analysis. All animals were euthanized by phenobarbital injection after the final blood sample collection. Pharmacokinetic assessments were conducted as described in 2.2.1.

Gastric H+/K+-ATPase = target: T1, Gastric H+/K+-ATPase (Oryctolagus cuniculus, UniProt P27112); experiment: Inhibition of H+/K+-ATPase activity (Malachite Green Pi assay); format: biochemical, rabbit
T1 construct: Gastric H^+/K^+-ATPase was prepared from rabbit glands; from tissue; host or cells: rabbit gastric glands
T1 sequence (P27112 whole entry): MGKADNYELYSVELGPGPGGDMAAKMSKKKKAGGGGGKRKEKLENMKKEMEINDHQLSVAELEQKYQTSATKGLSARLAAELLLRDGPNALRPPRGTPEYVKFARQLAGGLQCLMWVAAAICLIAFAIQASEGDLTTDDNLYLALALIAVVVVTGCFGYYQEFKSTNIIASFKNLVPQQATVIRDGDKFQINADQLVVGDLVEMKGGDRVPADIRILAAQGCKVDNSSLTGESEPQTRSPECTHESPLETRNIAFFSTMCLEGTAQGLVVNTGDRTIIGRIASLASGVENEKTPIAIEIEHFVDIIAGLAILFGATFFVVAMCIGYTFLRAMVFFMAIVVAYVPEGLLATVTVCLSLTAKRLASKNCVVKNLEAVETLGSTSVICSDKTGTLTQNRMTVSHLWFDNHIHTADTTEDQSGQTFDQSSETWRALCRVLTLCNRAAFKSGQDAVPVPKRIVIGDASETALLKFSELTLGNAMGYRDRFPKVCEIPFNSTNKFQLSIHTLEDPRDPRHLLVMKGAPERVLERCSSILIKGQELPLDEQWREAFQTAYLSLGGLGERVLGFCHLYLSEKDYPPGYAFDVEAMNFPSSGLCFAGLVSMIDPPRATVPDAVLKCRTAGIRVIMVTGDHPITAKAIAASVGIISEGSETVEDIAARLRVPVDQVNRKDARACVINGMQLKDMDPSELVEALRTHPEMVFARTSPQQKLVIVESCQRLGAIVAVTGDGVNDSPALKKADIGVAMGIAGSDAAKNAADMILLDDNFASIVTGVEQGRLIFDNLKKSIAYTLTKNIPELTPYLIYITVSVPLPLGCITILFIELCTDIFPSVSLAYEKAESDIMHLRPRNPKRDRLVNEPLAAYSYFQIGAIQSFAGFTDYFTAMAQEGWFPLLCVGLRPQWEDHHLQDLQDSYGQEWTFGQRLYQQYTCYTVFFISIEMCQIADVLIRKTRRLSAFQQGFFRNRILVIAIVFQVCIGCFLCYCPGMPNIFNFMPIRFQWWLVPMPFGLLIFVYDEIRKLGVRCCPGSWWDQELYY
T1 sequence (P18597 whole entry partner): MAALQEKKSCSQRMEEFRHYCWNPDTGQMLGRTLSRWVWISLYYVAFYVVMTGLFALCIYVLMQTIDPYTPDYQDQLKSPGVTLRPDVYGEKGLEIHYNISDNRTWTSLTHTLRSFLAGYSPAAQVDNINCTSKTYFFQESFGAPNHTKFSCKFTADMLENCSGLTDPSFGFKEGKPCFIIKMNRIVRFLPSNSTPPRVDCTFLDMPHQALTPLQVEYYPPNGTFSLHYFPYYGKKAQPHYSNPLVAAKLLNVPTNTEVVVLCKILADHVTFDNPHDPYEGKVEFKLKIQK
Description: The H^+/K^+-ATPase inhibition reaction was performed in buffer (50 mM Tris-HCl, 5 mM magnesium chloride, 10 μM valinomycin, pH 6.5) with or without 20 mM potassium chloride (KCl), and inorganic phosphate (Pi) was detected using Malachite Green solution, made from 0.1% malachite green, 1.5% hexaammonium molybdate, and 0.2% Tween-20 in a ratio of 100:25:2 ([Skou, 1982]; [Feng et al., 2011]). Gastric H^+/K^+-ATPase was prepared from rabbit glands, as described previously ([Kondo et al., 2012]; [Arikawa et al., 2012]). The reaction occurred in a 96-well plate with a total volume of 50 µL/well, including buffer, enzyme, ATP, and drug. After 30 min at 37 °C for enzyme stability, ATP was added at 0.2 mM to start the reaction, which was optimized from the titration experiments. The reaction lasted 20 min at 37 °C, followed by the addition of Malachite Green for the colorimetric assay. The enzyme control wells contained the full enzyme system, while the buffer control wells contained only buffer to correct for background values. Absorbance was measured at 620 nm using a plate reader (SpectraMax M5). The inhibition rate was calculated using the following formula, accounting for the enzyme activity in the presence and absence of K^+: Inhibition Rate %=ODwith K+and enzyme,without drug−ODwith K+and enzyme,with drug /ODwith K+and enzyme,without drug−ODwithout K+and enzyme,without drug×100 where “OD with K^+ and enzyme, without drug” is the optical density measured at 620 nm in the presence of K^+ and enzyme, without the tested drug (enzyme control wells); “OD with K^+ and enzyme, with drug” is the optical density measured at 620 nm in the presence of K^+ and enzyme, with the tested drug; and “OD without K^+ and enzyme, without drug” is the optical density measured at 620 nm in the absence of K^+ and enzyme, without the tested drug (buffer control wells).

[2] = 1.2 mg/kg, female dogs, repeat oral X842, Day 1, analyte as labelled
[3] = 1.2 mg/kg, female dogs, repeat oral X842, Day 7, analyte as labelled
[4] = 1.2 mg/kg, male dogs, 7 days of repeat oral X842, Day 1, analyte as labelled
[5] = 1.2 mg/kg, male dogs, 7 days of repeat oral X842, Day 7, analyte as labelled
[6] = 1.2 mg/kg, male dogs, repeat oral X842, Day 1, analyte as labelled
[7] = 1.2 mg/kg, male dogs, repeat oral X842, Day 7, analyte as labelled
[8] = female dogs, intravenous X842 0.3 mg/kg, analyte as labelled
[9] = female dogs, intravenous X842 0.3 mg/kg, analyte as labelled, read-out: t1/2 (converted)
[10] = female dogs, single oral X842 0.3 mg/kg, analyte as labelled
[11] = female dogs, single oral X842 1.2 mg/kg, analyte as labelled
[12] = female dogs, single oral X842 1.2 mg/kg, analyte as labelled, read-out: t1/2 (converted)
[13] = female dogs, single oral X842 4.8 mg/kg, analyte as labelled
[14] = female dogs, single oral X842 4.8 mg/kg, analyte as labelled, read-out: t1/2 (converted)
[15] = male dogs, intravenous X842 0.3 mg/kg, analyte as labelled
[16] = male dogs, intravenous X842 0.3 mg/kg, analyte as labelled, read-out: t1/2 (converted)
[17] = male dogs, single oral X842 0.3 mg/kg, analyte as labelled
[18] = male dogs, single oral X842 1.2 mg/kg, analyte as labelled
[19] = male dogs, single oral X842 1.2 mg/kg, analyte as labelled, read-out: t1/2 (converted)
[20] = male dogs, single oral X842 4.8 mg/kg, analyte as labelled
[21] = male dogs, single oral X842 4.8 mg/kg, analyte as labelled, read-out: t1/2 (converted)
[22] = female, iv, 0.3 mg/kg, female dogs, intravenous X842 0.3 mg/kg, analyte as labelled, read-out: AUC(0-24h)
[23] = female, po, 0.3 mg/kg, female dogs, single oral X842 0.3 mg/kg, analyte as labelled, read-out: AUC(0-24h)
[24] = female, po, 1.2 mg/kg, female dogs, repeat oral X842, Day 1, analyte as labelled, read-out: AUC(0-24h) Day 1
[25] = female, po, 1.2 mg/kg, female dogs, repeat oral X842, Day 7, analyte as labelled, read-out: AUC(0-24h) Day 7
[26] = female, po, 1.2 mg/kg, female dogs, single oral X842 1.2 mg/kg, analyte as labelled, read-out: AUC(0-24h)
[27] = female, po, 4.8 mg/kg, female dogs, single oral X842 4.8 mg/kg, analyte as labelled, read-out: AUC(0-24h)
[28] = male, iv, 0.3 mg/kg, male dogs, intravenous X842 0.3 mg/kg, analyte as labelled, read-out: AUC(0-24h)
[29] = male, po, 0.3 mg/kg, male dogs, single oral X842 0.3 mg/kg, analyte as labelled, read-out: AUC(0-24h)
[30] = male, po, 1.2 mg/kg, male dogs, repeat oral X842, Day 1, analyte as labelled, read-out: AUC(0-24h) Day 1
[31] = male, po, 1.2 mg/kg, male dogs, repeat oral X842, Day 7, analyte as labelled, read-out: AUC(0-24h) Day 7
[32] = male, po, 1.2 mg/kg, male dogs, single oral X842 1.2 mg/kg, analyte as labelled, read-out: AUC(0-24h)
[33] = male, po, 4.8 mg/kg, male dogs, single oral X842 4.8 mg/kg, analyte as labelled, read-out: AUC(0-24h)
[34] = in the presence of K+ (20 mM KCl), pH 6.5, read-out: IC50, H+/K+-ATPase inhibition
[35] = in the presence of potassium ions, rabbit gastric glands, read-out: IC50 (Figure 7A)

## Cc1cccc(C)c1CNc1cc(C(=O)NCCOC(=O)CCCC(=O)O)cn2c(C)c(C)nc12 [X842, linaprazan glurate]
[1]; [2]
  Cmax at 1 day: 138 ± 7.6 ng/mL
  half-life at 1 day: 66 ± 12 min
[1]; [3]
  Cmax at 7 day: 47.2 ± 10.6 ng/mL
  half-life at 7 day: 120 ± 72 min
[1]; [4]
  half-life at 1 day: 121 ± 43.8 min
[1]; [5]
  half-life at 7 day: 516 ± 648 min
[1]; [6]
  Cmax at 1 day: 26.3 ± 21.6 ng/mL
[1]; [7]
  Cmax at 7 day: 15.6 ± 10.4 ng/mL
[1]; [8]
  Cmax: 694 ± 225 ng/mL
[1]; [9]
  half-life: 42 ± 6 min
[1]; [10]
  Cmax: 6.1 ng/mL
[1]; [11]
  Cmax: 37.5 ± 7.6 ng/mL
[1]; [12]
  half-life: 72 ± 12 min
[1]; [13]
  Cmax: 271 ng/mL
[1]; [14]
  half-life: 162 ± 132 min
[1]; female dogs, single oral dose, read-out: t1/2 (range over doses)
  half-life: 126 to 192 min
[1]; [15]
  Cmax: 745 ± 157 ng/mL
[1]; [16]
  half-life: 30 ± 6 min
[1]; [17]
  Cmax: 5.3 ± 4 ng/mL
[1]; [18]
  Cmax: 26.3 ng/mL
[1]; [19]
  half-life: 120 ± 42 min
[1]; [20]
  Cmax: 355 ng/mL
[1]; [21]
  half-life: 204 ± 132 min
[1]; male dogs, single oral dose, read-out: t1/2 (range over doses)
  half-life: 120 to 204 min
[1]; both sexes, 0.3 mg/kg, dogs, IV administration, similar between the sexes, read-out: t1/2 (converted)
  half-life: ~36 min
[1]; [22]
  AUC(0-t): 343 ± 125 ng·h/mL
[1]; [23]
  AUC(0-t): 5.1 ± 3.3 ng·h/mL
[1]; [24]
  AUC(0-t): 72.3 ± 18.3 ng·h/mL
[1]; [25]
  AUC(0-t): 69.4 ± 54.1 ng·h/mL
[1]; [26]
  AUC(0-t): 72.3 ng·h/mL
[1]; [27]
  AUC(0-t): 504 ng·h/mL
[1]; [28]
  AUC(0-t): 361 ± 118 ng·h/mL
[1]; [29]
  AUC(0-t): 5.2 ± 2.3 ng·h/mL
[1]; [30]
  AUC(0-t): 65.1 ± 51.2 ng·h/mL
[1]; [31]
  AUC(0-t): 35.4 ± 8.7 ng·h/mL
[1]; [32]
  AUC(0-t): 65.1 ng·h/mL
[1]; [33]
  AUC(0-t): 889 ng·h/mL
Gastric H+/K+-ATPase
  Inhibitory effect on H+/K+-ATPase in the absence of K+: No measurable inhibitory effect
Gastric H+/K+-ATPase; in the presence of K+
  Fold lower inhibitory activity against H+/K+-ATPase compared with linaprazan: ~10 fold
Gastric H+/K+-ATPase; [34]
  IC50: 436 nM
Gastric H+/K+-ATPase; [35]
  IC50: 436 nM

## Cc1cccc(C)c1CNc1cc(C(=O)NCCO)cn2c(C)c(C)nc12 [linaprazan]
[1]; [2]
  Cmax at 1 day: 67.2 ± 4.7 ng/mL
  half-life at 1 day: 192 ± 25.2 min
[1]; [3]
  Cmax at 7 day: 65 ± 4.7 ng/mL
  half-life at 7 day: 306 ± 66 min
[1]; [4]
  half-life at 1 day: 168 ± 12 min
[1]; [5]
  half-life at 7 day: 228 ± 24 min
[1]; [6]
  Cmax at 1 day: 82.8 ± 56.5 ng/mL
[1]; [7]
  Cmax at 7 day: 67.5 ± 23.9 ng/mL
[1]; [8]
  Cmax: 30.6 ± 6.2 ng/mL
[1]; [9]
  half-life: 96 ± 12 min
[1]; [10]
  Cmax: 10.4 ± 1.4 ng/mL
[1]; female dogs, single oral X842 0.3 mg/kg, analyte as labelled, read-out: t1/2 (converted)
  half-life: 126 ± 24 min
[1]; [11]
  Cmax: 67.2 ± 4.7 ng/mL
[1]; [12]
  half-life: 192 ± 25.2 min
[1]; [13]
  Cmax: 535 ± 149 ng/mL
[1]; [14]
  half-life: 132 ± 54 min
[1]; [15]
  Cmax: 45.5 ± 21.4 ng/mL
[1]; [16]
  half-life: 90 ± 15 min
[1]; [17]
  Cmax: 15.8 ng/mL
[1]; male dogs, single oral X842 0.3 mg/kg, analyte as labelled, read-out: t1/2 (converted)
  half-life: 132 ± 42 min
[1]; [18]
  Cmax: 82.8 ± 56.5 ng/mL
[1]; [19]
  half-life: 168 ± 12 min
[1]; [20]
  Cmax: 851 ± 116 ng/mL
[1]; [21]
  half-life: 156 ± 12 min
[1]; [22]
  AUC(0-t): 106 ± 13.9 ng·h/mL
[1]; [23]
  AUC(0-t): 48.7 ± 7.4 ng·h/mL
[1]; [24]
  AUC(0-t): 412 ± 166 ng·h/mL
[1]; [25]
  AUC(0-t): 508 ± 41.8 ng·h/mL
[1]; [26]
  AUC(0-t): 412 ng·h/mL
[1]; [27]
  AUC(0-t): 2920 ng·h/mL
[1]; [28]
  AUC(0-t): 170 ± 26.2 ng·h/mL
[1]; [29]
  AUC(0-t): 77.8 ± 66.8 ng·h/mL
[1]; [30]
  AUC(0-t): 436 ± 272 ng·h/mL
[1]; [31]
  AUC(0-t): 439 ± 81.6 ng·h/mL
[1]; [32]
  AUC(0-t): 436 ng·h/mL
[1]; [33]
  AUC(0-t): 4850 ng·h/mL
Gastric H+/K+-ATPase
  Inhibitory effect on H+/K+-ATPase in the absence of K+: No measurable inhibitory effect
Gastric H+/K+-ATPase; [34]
  IC50: 40 nM and 40.2 nM
Gastric H+/K+-ATPase; [35]
  IC50: 40.2 nM
